Assay results published in patent US11292788B2, “IL-17 and IFN-gamma inhibition for the treatment of autoimmune diseases and chronic inflammation” (Immunic AG, priority 2017, dated 2022).
Read-outs that look alike come from different tables or passages of the source.

What was measured:
Assay type in all cases: cell-based
IL-17A = test: Cytokine assay: IL-17A production by human PBMC stimulated with PHA; conditions: IC50 class, read-out: IL-17A Inhib.
Method: (§1) Cytokine Assay: Analysis of Proliferation of and Cytokine Production by Human PBMC Stimulated with PHA
(§2) Peripheral blood mononuclear cells (PBMC) from healthy human donors were purified using Accuspin™ System-Histopaque-1077 (Sigma) according to the protocol recommended by the manufacturer. Purified PBMC were then washed twice with phosphate-buffered saline (PBS) and resuspended in RPMI1640 culture medium supplemented with 10% dialyzed heat inactivated fetal calf serum, 1.5 mM L-glutamine, 100 U penicillin/ml, and […] (all from PAN Biotech, Aidenbach, Germany). For stimulation, PBMC were seeded at 1×10^5 cells/well, activated with 2 μg/ml phytohaemagglutinin (PHA, Sigma) and incubated with the test compounds for 48 hours. IL-17A, IL-17F and INF-γ were then determined in the culture supernatant using a Luminex BioPlex system, following the manufacturer's instructions (BioRad, Munich, Germany). For screening, compounds were used at 10, 1, 0.1 and 0.01 μM. To determine the IC50, compounds were titrated semilogarithmically.
(§3) Cytokines were determined in the aforementioned culture supernatant using the following methods: IL-17A was measured using the human homodimer IL-17A ELISA Ready Set Go Kit from eBioscience (Frankfurt, Germany); IL-17F using the human IL-17F ELI-Pair from Hölzel DiagnosticaGmBH (Köln, Germany); and IFN-γ using the OptEIA human IFN-g ELISA from BD Bioscience (Heidelberg, Germany), all following the manufacturer's instructions.

IL-17F = test: Cytokine assay: IL-17F production by human PBMC stimulated with PHA; conditions: IC50 class, read-out: IL-17F Inhib.
Method: as §1, §2, §3

INF-γ = test: Cytokine assay: INF-γ production by human PBMC stimulated with PHA; conditions: IC50 class, read-out: IFN-gamma Inhib.
Method: as §1, §2, §3

| Compound | IC50 (IL-17A; Homo sapiens, PBMC) | IC50 (IL-17F; Homo sapiens, PBMC) | IC50 (INF-γ; Homo sapiens, PBMC) | IC50 (IL-17A) | IC50 (IL-17F) | IC50 (INF-γ) |
| --- | --- | --- | --- | --- | --- | --- |
| C[C@]1(O)C[C@H](n2ncc(-c3onc(-c4c(F)cccc4Cl)c3C(=O)OC3CC3)c2C(F)(F)F)C1 [Example 50, cyclopropyl 3-(2-chloro-6-fluorophenyl)-5-(1-(3-hydroxy-3-methylcyclobutyl)-5-(trifluoromethyl)-1H-pyrazol-4-yl)isoxazole-4-carboxylate] | 50 to 500 nM | < 50 nM | < 50 nM |  |  |  |
| Cc1c(-c2onc(-c3ccccc3Cl)c2C(=O)OC2COC2)cnn1[C@H]1C[C@@](C)(O)C1 [Example 52, oxetan-3-yl 3-(2-chlorophenyl)-5-(1-(3-hydroxy-3-methylcyclobutyl)-5-methyl-1H-pyrazol-4-yl)isoxazole-4-carboxylate] | 50 to 500 nM | 50 to 500 nM | 50 to 500 nM |  |  |  |
| Cc1c(-c2onc(-c3ccccc3Cl)c2C(=O)OC2CC2)cnn1[C@H]1C[C@@](C)(O)C1 [Example 54, cyclopropyl 3-(2-chlorophenyl)-5-{5-methyl-1-[3-hydroxy-3-methylcyclobutyl]-1H-pyrazol-4-yl}-1,2-oxazole-4-carboxylate] |  |  |  | 500 to 5000 nM | 500 to 5000 nM | 50 to 500 nM |
| CC(C)(O)Cn1ncc(-c2onc(-c3c(F)cccc3Cl)c2C(=O)OC2COC2)c1C(F)(F)F [Example 57, oxetan-3-yl 3-(2-chloro-6-fluorophenyl)-5-[1-(2-hydroxy-2-methylpropyl)-5-(trifluoromethyl)-1H-pyrazol-4-yl]-1,2-oxazole-4-carboxylate] | 500 to 5000 nM | 50 to 500 nM | 50 to 500 nM |  |  |  |
| CC(C)(O)Cn1ncc(-c2onc(-c3c(F)cccc3Cl)c2CO)c1C(F)(F)F [Example 63, 1-(4-(3-(2-chloro-6-fluorophenyl)-4-(hydroxymethyl)isoxazol-5-yl)-5-(trifluoromethyl)-1H-pyrazol-1-yl)-2-methylpropan-2-ol] | ≥ 5000 nM | ≥ 5000 nM | ≥ 5000 nM |  |  |  |
| C[C@]1(O)C[C@@H](n2ncc(-c3onc(-c4ccccc4Cl)c3CO)c2C(F)(F)F)C1 [Example 64, 3-(4-(3-(2-chlorophenyl)-4-(hydroxymethyl)-1,2-oxazol-5-yl)-5-(trifluoromethyl)-1H-pyrazol-1-yl)-1-methylcyclobutan-1-ol] | ≥ 5000 nM | ≥ 5000 nM | 500 to 5000 nM |  |  |  |
| COCc1c(-c2c(F)cccc2Cl)noc1-c1cnn(C[C@H](C)O)c1C(F)(F)F [Example 68, (2S)-1-(4-(3-(2-chloro-6-fluorophenyl)-4-(methoxymethyl)isoxazol-5-yl)-5-(trifluoromethyl)-1H-pyrazol-1-yl)propan-2-ol] | 500 to 5000 nM | 500 to 5000 nM | 50 to 500 nM |  |  |  |
| COCc1c(-c2ccccc2Cl)noc1-c1cnn([C@H]2C[C@@](C)(O)C2)c1C [Example 72, 3-{4-[3-(2-chlorophenyl)-4-(methoxymethyl)-1,2-oxazol-5-yl]-5-methyl-1H-pyrazol-1-yl}-1-methylcyclobutan-1-ol] | 50 to 500 nM | 50 to 500 nM | < 50 nM |  |  |  |
| COCc1c(-c2ccccc2Cl)noc1-c1cnn([C@H]2C[C@](C)(O)C2)c1C [Example 73, 3-{4-[3-(2-chlorophenyl)-4-(methoxymethyl)-1,2-oxazol-5-yl]-5-methyl-1H-pyrazol-1-yl}-1-methylcyclobutan-1-ol] | 500 to 5000 nM | 500 to 5000 nM | 500 to 5000 nM |  |  |  |
| COCc1c(-c2ccccc2Cl)noc1-c1cnn([C@H]2C[C@@](C)(O)C2)c1C(F)(F)F [Example 74, 3-(4-(3-(2-chlorophenyl)-4-(methoxymethyl)isoxazol-5-yl)-5-(trifluoromethyl)-1H-pyrazol-1-yl)-1-methylcyclobutan-1-ol] | 50 to 500 nM | 50 to 500 nM | 50 to 500 nM |  |  |  |
| COCCOCc1c(-c2ccccc2Cl)noc1-c1cnn(C[C@H](C)O)c1C(F)(F)F [Example 75, (2S)-1-{4-[3-(2-chlorophenyl)-4-[(2-methoxyethoxy)methyl]-1,2-oxazol-5-yl]-5-(trifluoromethyl)-1H-pyrazol-1-yl}propan-2-ol] | 500 to 5000 nM | 500 to 5000 nM | 500 to 5000 nM |  |  |  |
| Cc1c(-c2onc(-c3ccccc3Cl)c2COC2CC2)cnn1CCC(C)(C)O [Example 79, 4-{4-[3-(2-chlorophenyl)-4-(cyclopropoxymethyl)-1,2-oxazol-5-yl]-5-methyl-1H-pyrazol-1-yl}-2-methylbutan-2-ol] | 50 to 500 nM | 50 to 500 nM | < 50 nM |  |  |  |
| Cc1c(-c2onc(-c3ccccc3Cl)c2COC2CC2)cnn1[C@H]1C[C@](C)(O)C1 [Example 81, 3-{4-[3-(2-chlorophenyl)-4-(cyclopropoxymethyl)-1,2-oxazol-5-yl]-5-methyl-1H-pyrazol-1-yl}-1-methylcyclobutan-1-ol] | 500 to 5000 nM | 500 to 5000 nM | 50 to 500 nM |  |  |  |
| Cc1c(-c2onc(-c3c(F)cccc3Cl)c2COC2CC2)cnn1[C@H]1C[C@](C)(O)C1 [Example 84, 3-{4-[3-(2-chloro-6-fluorophenyl)-4-(cyclopropoxymethyl)-1,2-oxazol-5-yl]-5-methyl-1H-pyrazol-1-yl}-1-methylcyclobutan-1-ol] | 50 to 500 nM | 50 to 500 nM | 50 to 500 nM |  |  |  |
| C[C@H](O)Cn1ncc(-c2onc(-c3ccccc3Cl)c2COC2COC2)c1C(F)(F)F [Example 88, (S)-1-(4-(3-(2-chlorophenyl)-4-((oxetan-3-yloxy)methyl)isoxazol-5-yl)-5-(trifluoromethyl)-1H-pyrazol-1-yl)propan-2-ol] | ≥ 5000 nM | 500 to 5000 nM | 500 to 5000 nM |  |  |  |
| COc1cccc(-c2noc(-c3cnn(CCC(C)(C)O)c3C(F)(F)F)c2COC2CC2)c1Cl [Example 91, 4-{4-[3-(2-chloro-3-methoxyphenyl)-4-(cyclopropoxymethyl)-1,2-oxazol-5-yl]-5-(trifluoromethyl)-1H-pyrazol-1-yl}-2-methylbutan-2-ol] | < 50 nM | < 50 nM | < 50 nM |  |  |  |

Next, values leading:

| IC50 (IL-17A; Homo sapiens, PBMC) | IC50 (IL-17F; Homo sapiens, PBMC) | IC50 (INF-γ; Homo sapiens, PBMC) | IC50 (IL-17A) | IC50 (IL-17F) | IC50 (INF-γ) | Compound |
| --- | --- | --- | --- | --- | --- | --- |
| 500 to 5000 nM | 50 to 500 nM | 50 to 500 nM |  |  |  | COC(=O)c1c(-c2cccnc2O)noc1-c1cnn(CC(C)(C)O)c1C(F)(F)F [Example 93, methyl 5-[1-(2-hydroxy-2-methylpropyl)-5-(trifluoromethyl)-1H-pyrazol-4-yl]-3-(2-hydroxypyridin-3-yl)-1,2-oxazole-4-carboxylate] |
| ≥ 5000 nM | ≥ 5000 nM | 500 to 5000 nM |  |  |  | C[C@@H](O)Cn1ncc(-c2cc(-c3c(F)cccc3Cl)no2)c1C(F)(F)F [Example 94, (2R)-1-(4-(3-(2-chloro-6-fluorophenyl)isoxazol-5-yl)-5-(trifluoromethyl)-1H-pyrazol-1-yl)propan-2-ol] |
| 500 to 5000 nM | 500 to 5000 nM | 50 to 500 nM |  |  |  | C[C@H](O)Cn1ncc(-c2onc(-c3ccccc3Cl)c2C2CCCO2)c1C(F)(F)F (stereo partly drawn) [Example 96, (2S)-1-{4-[3-(2-chlorophenyl)-4-(oxolan-2-yl)-1,2-oxazol-5-yl]-5-(trifluoromethyl)-1H-pyrazol-1-yl}propan-2-ol] |
|  |  |  | 500 to 5000 nM | 50 to 500 nM | 50 to 500 nM | C[C@]1(O)C[C@@H](n2ncc(-c3onc(-c4c(F)cccc4Cl)c3-c3ccncn3)c2C(F)(F)F)C1 [Example 105, 3-{4-[3-(2-chloro-6-fluorophenyl)-4-(pyrimidin-4-yl)-1,2-oxazol-5-yl]-5-(trifluoromethyl)-1H-pyrazol-1-yl}-1-methylcyclobutan-1-ol] |
| 50 to 500 nM | 50 to 500 nM | < 50 nM |  |  |  | Cc1c(-c2onc(-c3ccccc3Cl)c2-c2ccncn2)cnn1[C@H]1C[C@@](C)(O)C1 [Example 107, 3-{4-[3-(2-chlorophenyl)-4-(pyrimidin-4-yl)-1,2-oxazol-5-yl]-5-methyl-1H-pyrazol-1-yl}-1-methylcyclobutan-1-ol] |
| 50 to 500 nM | 50 to 500 nM | 50 to 500 nM |  |  |  | Cc1c(-c2onc(-c3c(F)cccc3Cl)c2-c2ccncn2)cnn1[C@H]1C[C@@](C)(O)C1 [Example 108, 3-{4-[3-(2-chloro-6-fluorophenyl)-4-(pyrimidin-4-yl)-1,2-oxazol-5-yl]-5-methyl-1H-pyrazol-1-yl}-1-methylcyclobutan-1-ol] |
| 500 to 5000 nM | 500 to 5000 nM | 50 to 500 nM |  |  |  | Cc1c(-c2onc(-c3ccccc3Cl)c2-c2cnccn2)cnn1[C@H]1C[C@@](C)(O)C1 [Example 109, 3-{4-[3-(2-chlorophenyl)-4-(pyrazin-2-yl)-1,2-oxazol-5-yl]-5-methyl-1H-pyrazol-1-yl}-1-methylcyclobutan-1-ol] |
| 500 to 5000 nM | 50 to 500 nM | 500 to 5000 nM |  |  |  | COc1ccccc1-c1noc(-c2cnn(C[C@@H](C)O)c2C(F)(F)F)c1-c1ncccn1 [Example 113, (2R)-1-{4-[3-(2-methoxyphenyl)-4-(pyrimidin-2-yl)-1,2-oxazol-5-yl]-5-(trifluoromethyl)-1H-pyrazol-1-yl}propan-2-ol] |
